Laboratory results as given in US9284576B2, “In vitro hepatic differentiation” (Cambride Enterprise Limited, priority 2010, dated 2016).
Peptide text beside a SMILES is read from it. * marks the point of attachment. Cbz = O=C(OCc1ccccc1)*

What was measured:
[1] = tested on: dhIPSC derived hepatocytes; test: Metabolic enzyme response to glucagon stimulation (qRT-PCR of PEPCK, G6P, IGFBP1); type: cell-based, human; details: 100 nM glucagon hydrochloride; 0, 1, 2 and 3 hours after stimulation; FIG. 16
Protocol: dhIPSC derived hepatocytes were incubated for six hours in serum-free, high-glucose DMEM supplemented with 2 mM L-glutamine, […] penicillin, 100 ug/ml streptomycin, and 0.5% Bovine Serum Albumin (all from Sigma-Aldrich). Cells were stimulated with 100 nM glucagon […] hydrochloride (Novo Nordisk, Bagsvard, Denmark) or PBS (Sigma-Aldrich) as a negative control. Total RNA was harvested using the RNeasy Kit (Qiagen, Hilden, Germany) at 0, 1, 2 or 3 hours after stimulation and purified as per manufacturer's guidelines. Reverse transcription was performed on 1 ug RNA in a 25 μl reaction mixture containing 2000 Moloney Murine Leukemia Virus Reverse Transcriptase, 500 ng random primers and 0.5 mM deoxynucleotide triphosphates (all from Promega, Wis., Ma) as per manufacturer's guidelines. cDNA was subjected to real-time quantitative PCR on an ABI7900 detection system (Applied Biosystems, Foster City, Calif.) using Tagman PCR Mastermix (Applied Biosystems) and gene-specific forward and reverse primers and fluorogenic probes. All results were normalised to human 36B4 as a reference gene. Primers and probes for PEPCK (Hs00159918—1), G6P (Hs00609178—1) and IGFBP1 (Hs00426285 ml) were purchased as premade stocks from Applied Biosystems. Oligonucleotides for 36B4 were designed in-house and synthesised by Sigma-Aldrich (Forward, 5′-[…]-3′; Reverse, 5′-[…]-3′; Probe, 5′-[JOEE][…][TAMRA]-3′).

[2] = tested on: α1-antitrypsin deficient dhIPSC derived hepatocytes; test: proteosome blocking assay with ELISA for α1-antitrypsin; type: cell-based, human; details: MG132 added to medium overnight (16 hours), A1ATD vs control hIPSC derived hepatocytes, FIG. 10
Protocol: High binding surface COSTAR 96-well plates (Corning, N.Y., USA) were coated overnight with affinity-purified rabbit polyclonal antibodies against α1-antitrypsin (Abcam 31657, Cambridge, UK) at 2 μg/ml in carbonate/bicarbonate buffer (Na2CO3/NAHCO3, pH 9.5). After washing (0.9% w/v NaCl, 0.05% v/v Tween 20), the plates were blocked for two hours in blocking buffer (PBS, 0.25% w/v BSA, 0.05% v/v Tween 20). Samples (culture medium or cells lysed in 50 μl of Nonidet lysis buffer (150 mM NaCl, 50 mM Tris-Cl, pH 7.5, 1% (v/v) Nonidet P-40), and standards (plasma purified M or Z α1-antitrypsin) were diluted in blocking buffer and 50 μl added to each well then incubated for two hours. After washing, the wells were incubated with either 9C5 or 2C1 monoclonal antibodies (1 μg/ml diluted in blocking buffer), and incubated for two hours. Bound monoclonal antibodies were detected with rabbit anti-mouse IgG HRP-labelled antibody (Sigma Aldrich, Haverhill, UK, 1:20,000) for one hour. The reaction was developed with TMB liquid substrate (Sigma Aldrich, Haverhill, UK) for 10 minutes in the dark and the reaction was stopped with 1 M H2SO4. Absorbance was read at 450 nm on a Thermo-max microplate reader (Molecular Devices, Sunnyvale, Calif., U.S.A.). […]

## glucagon hydrochloride
[1]
  expression of glucagon-responsive genes PEPCK, G6P and IGFBP1: induction of expression of three canonical glucagon-responsive genes

## CC(C)C[C@@H](C=O)NC(=O)[C@H](CC(C)C)NC(=O)[C@H](CC(C)C)NC(=O)OCc1ccccc1 [MG132] (Cbz-Leu-Leu-Leu-aldehyde)
[2]
  intracellular α1-antitrypsin polymers after proteasome inhibition: disease specific intracellular increase in α1-antitrypsin polymers
